Test results taken from article PMC9781444, “Pyridyl Methylsulfinyl Benzimidazole Derivatives as Promising Agents against Giardia lamblia and Trichomonas vaginalis” (Molecules, 2022).
Where two headings read alike, the source gives them in different places.

Columns and labels:
[1] = molecular target: T1, TvG6PD::6PGL (Trichomonas vaginalis, UniProt A2DBT5); details: cited from earlier work
[2] = tested on: T. vaginalis trophozoites; assay: Anti-T. vaginalis assay (trophozoite viability, trypan blue); assay type: cell-based; details: for selectivity index (SI), T. vaginalis: Caco-2 CC50 relative to T. vaginalis IC50; for IC50: Trichomonas vaginalis, trophozoites, 37 °C; for IC50 / reduction of T. vaginalis trophozoite viability at 6 µM / reduction of T. vaginalis trophozoite viability at 100 μM: 24 h; for reduction of T. vaginalis trophozoite viability at 100 μM: relative to negative control
Experimental: The isolate T. vaginalis, Donne ATCC 30236 was axenically grown in trypticase–yeast extract–maltose (TYM) medium (pH 6.0), supplemented with 10% sterile horse serum (previously inactivated at 56 °C for 30 min), and incubated at 37 °C under microaerobic conditions. The trophozoites were axenically maintained, and a trypan blue (0.4%) exclusion assay was performed to ensure that the minimum viability of 95% and logarithmic growth phase were achieved before proceeding to the antiparasitic assay.
Drug susceptibility assays were performed to analyze the trichomonacidal potential of O2N-BZM7 and O2N-BZM9 compounds against T. vaginalis, as previously described. The compounds were diluted in dimethylsulfoxide (DMSO) as a vehicle for solubilization. […] Trophozoites were adjusted to an initial density of 2.6 × 10^5 trophozoites/mL of TYM medium. Then, 1.5 mL tubes were seeded with […] of T. vaginalis trophozoites/tubes (2.6 × 10^5 trophozoites/mL), O2N-BZM7 and O2N-BZM9 were added, and tubes were incubated at 37 °C with 5% CO2 for 24 h. After incubation, trophozoites were counted with trypan blue (0.4%) (1:1, v/v) on a Neubauer chamber to determine the trophozoites’ motility, morphology, and viability. Three controls were used in each assay: a negative control containing only trophozoites, a 0.06% DMSO control, and a positive control containing MTZ at 100 μM (Sigma-Aldrich, St. Louis, MO, USA). The IC50 was calculated using the GraphPad Prism 8.0 software Inc. version 8.0.2 (263) (San Diego, CA, USA).

[3] = tested on: G. lamblia; assay: In vitro antigiardial activity; assay type: cell-based; details: for selectivity index (SI), G. lamblia: Caco-2 CC50 relative to G. lamblia IC50
[4] = tested on: Caco-2 cells; details: read-out: Caco-2 CC50, metronidazole; cited from earlier work
[5] = molecular target: T2, GlG6PD::6PGL (Giardia intestinalis, UniProt A8BWM5); assay: GlG6PD::6PGL enzyme inactivation assay; assay type: biochemical, G. lamblia; details: for inhibition at 400 µM: read-out: Inhibition (%) at 400 µM of GlG6PD::6PGL; for Inhibition (%) at 400 µM of GlG6PD::6PGL: 400 µM compound, 0.2 mg/mL enzyme, 37 °C, 2 h, relative to enzyme without inhibitor; for kinact/KI: read-out: second-order inactivation rate constant k2, GlG6PD::6PGL
Experimental: (§1) The G6PD domain activity of the recombinant proteins was spectrophotometrically measured at 25 °C by monitoring the reduction in NADP^+ at 340 nm. The assay was performed with 1 mL of standard reaction mixture containing 0.1 M Tris-HCl, 0.01 M MgCl2, 1 mM NADP^+, and 1 mM glucose-6-phosphate (G6P) at pH 8.3. The reaction was initiated with the addition of 1 µg/mL fused GlG6PD::6PGL or TvG6PD::6PGL enzymes.
(§2) Inactivation assays were performed with the compounds against GlG6PD::6PGL and TvG6PD::6PGL. Thus, all the compounds were activate immediately before the experiments as previously reported and diluted using dimethyl sulfoxide (DMSO) as a solvent. For the assay, 0.2 mg/mL of the enzyme was incubated with the compounds at a concentration of 400 µM at 37 °C for 2 h. Following incubation, the activity was measured with a standard reaction mixture. Only the compounds that reduced the activity of the enzyme by more than 50% were used in the subsequent experiments.
(§3) Then, aliquots from these incubations were withdrawn, and the residual activity was determined under standard conditions. The results are reported as the percentage of residual activity (using the activity of each enzyme incubated without any compound as 100% activity) versus the compound’s concentration.
(§4) The second-order rate constants of inactivation for each one of the compounds were calculated by obtaining the pseudo-first-order rate constant (k1) values. Pseudo-first-order inactivation rate constants (k1) were obtained at four or five fixed concentrations for each of the compounds. At the indicated times, aliquots were withdrawn to determine residual activity. Then, residual activity data were fitted using the monoexponential decay equation, as previously reported. The previously obtained k1 values were replotted against the concentrations of each compound, and the slope created by these plots corresponds to the second-order inactivation constant k2 (M^−1·s^−1).

[6] = molecular target: T1, TvG6PD::6PGL; assay: TvG6PD::6PGL enzyme inactivation assay; assay type: biochemical, T. vaginalis; details: for inhibition at 400 µM: read-out: Inhibition (%) at 400 µM of TvG6PD::6PGL, 400 µM compound, 0.2 mg/mL enzyme, 37 °C, 2 h, relative to enzyme without inhibitor; for kinact/KI: read-out: second-order inactivation rate constant k2, TvG6PD::6PGL, slope of k1 versus compound concentration
Experimental: as §1, §2, §3, §4

[7] = tested on: GlTIM; design: method as in PMID 32882836; details: cited from earlier work; for IC50: read-out: IC50 TIM enzyme from G. lamblia
[8] = molecular target: T1, TvG6PD::6PGL; assay: Intrinsic fluorescence of TvG6PD::6PGL with compounds; design: species or system T. vaginalis; details: compound at IC50 concentration, 2 h, 37 °C; native protein 673 a.u.
Experimental: (§5) The effect of the compounds on the tertiary structure (3D) of the GlG6PD::6PGL and TvG6PD::6PGL proteins was evaluated by monitoring the changes in the intrinsic and extrinsic fluorescence using a Perkin-Elmer LS-55 spectrofluorometer (Perkin-Elmer, Wellesley, MA, USA). […] Following incubation, the proteins were excited at 280 nm, and we recorded the emission spectra from 310 to 500 nm with a scan speed of 150 nm/min using excitation and emission slits of 4 and 8 nm, respectively. The spectra of the blanks (buffer phosphate containing each of the compounds) were subtracted from all the obtained spectra that contained the protein, and the spectrum of the enzyme without the compound was used as control. The final spectrum for each compound was the average of five scans.

[9] = molecular target: T2, GlG6PD::6PGL; assay: Circular dichroism of GlG6PD::6PGL with compounds; design: species or system G. lamblia; details: compound at IC50 concentration, 2 h, 37 °C, protein 0.5 mg/mL
Experimental: One control containing only enzyme was used in each assay. Then, the proteins were loaded in a quartz cell with a 0.1 cm path length, and spectral scans were recorded at 25 °C in ultraviolet circular dichroism (UV-CD) ranging from 200 to 260 nm. The spectra of the blanks (buffer P solution containing each of the compounds) were subtracted from all the obtained spectra that contained the protein. All the CD data were reported as molar ellipticity. The experiments were performed in triplicate.

[10] = molecular target: T2, GlG6PD::6PGL; assay: Intrinsic fluorescence of GlG6PD::6PGL with compounds; design: species or system G. lamblia; details: compound at IC50 concentration, 2 h, 37 °C; for maximum intrinsic fluorescence intensity of GlG6PD::6PGL: control 874 a.u.
Experimental: as §5

[11] = tested on: G. lamblia; design: method as in PMID 32882836; details: previous study; cited from earlier work

T1 sequence (A2DBT5 entry or part of it): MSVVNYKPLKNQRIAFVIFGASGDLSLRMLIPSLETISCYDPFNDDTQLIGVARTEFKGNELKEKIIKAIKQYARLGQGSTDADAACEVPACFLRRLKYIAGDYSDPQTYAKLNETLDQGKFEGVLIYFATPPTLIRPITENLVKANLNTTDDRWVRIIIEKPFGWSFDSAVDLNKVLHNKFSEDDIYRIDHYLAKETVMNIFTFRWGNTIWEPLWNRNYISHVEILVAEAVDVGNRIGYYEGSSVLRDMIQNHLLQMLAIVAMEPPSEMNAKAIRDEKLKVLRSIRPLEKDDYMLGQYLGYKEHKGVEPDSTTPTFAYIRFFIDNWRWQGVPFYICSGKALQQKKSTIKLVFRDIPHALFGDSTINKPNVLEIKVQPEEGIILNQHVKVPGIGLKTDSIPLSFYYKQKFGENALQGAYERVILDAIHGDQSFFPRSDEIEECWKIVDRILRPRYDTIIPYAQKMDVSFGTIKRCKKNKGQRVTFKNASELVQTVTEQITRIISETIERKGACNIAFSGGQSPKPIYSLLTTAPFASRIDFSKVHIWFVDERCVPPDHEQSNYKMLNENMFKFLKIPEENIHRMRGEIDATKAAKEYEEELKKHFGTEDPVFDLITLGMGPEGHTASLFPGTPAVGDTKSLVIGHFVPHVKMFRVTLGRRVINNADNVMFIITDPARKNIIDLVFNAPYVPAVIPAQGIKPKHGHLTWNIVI
T2 sequence (A8BWM5 entry or part of it): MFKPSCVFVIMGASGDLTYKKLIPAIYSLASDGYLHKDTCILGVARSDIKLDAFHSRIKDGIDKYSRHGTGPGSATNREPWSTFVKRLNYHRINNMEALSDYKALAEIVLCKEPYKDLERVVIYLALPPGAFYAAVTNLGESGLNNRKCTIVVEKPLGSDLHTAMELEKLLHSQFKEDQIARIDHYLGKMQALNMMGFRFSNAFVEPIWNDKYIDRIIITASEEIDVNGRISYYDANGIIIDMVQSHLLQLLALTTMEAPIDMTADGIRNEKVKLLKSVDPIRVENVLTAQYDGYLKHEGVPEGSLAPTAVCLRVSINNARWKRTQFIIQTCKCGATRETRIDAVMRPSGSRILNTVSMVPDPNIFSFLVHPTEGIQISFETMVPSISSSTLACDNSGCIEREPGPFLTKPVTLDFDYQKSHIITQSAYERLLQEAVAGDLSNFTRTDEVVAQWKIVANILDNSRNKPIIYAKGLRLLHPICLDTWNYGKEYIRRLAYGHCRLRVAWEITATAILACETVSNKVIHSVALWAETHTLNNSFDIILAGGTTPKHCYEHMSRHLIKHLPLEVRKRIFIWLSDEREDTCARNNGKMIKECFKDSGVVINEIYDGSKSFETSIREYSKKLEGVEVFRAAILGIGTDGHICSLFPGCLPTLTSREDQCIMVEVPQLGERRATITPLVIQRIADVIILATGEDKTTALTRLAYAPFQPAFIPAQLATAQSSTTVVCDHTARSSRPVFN

Row | SMILES | selectivity index (SI), T. vaginalis [2] | IC50 [2] | selectivity index (SI), G. lamblia [3] | inhibition at 400 µM [5] | inhibition at 400 µM [6] | IC50 [7] | Inhibition (%) at 400 µM of GlG6PD::6PGL [5] | kinact/KI [5] | further results
1 | O=C(Nc1ccc(Cl)cc1)Nc1ncc([N+](=O)[O-])s1 [CNZ-3] | – | – | – | – | – | – | – | – | k2 for TvG6PD::6PGL protein, in-house library compounds [1]: 0.66 M⁻¹ s⁻¹
2 | Cc1ncc([N+](=O)[O-])n1CCO [Metronidazole, reference compound] | 1.6 | 12 µM | 3.9 | – | – | – | – | – | IC50 ([3]; Giardia duodenalis, no reference given, read-out: G. lamblia IC50, metronidazole positive control): 4.8 µM; CC50 [4]: 19 µM
3 | [O-][S+](Cc1ccccn1)c1nc2ccccc2[nH]1 (stereo not shown) [H-BZM1, 2-[(pyridin-2-yl)methanesulfinyl]-1H-benzimidazole] | – | – | – | 62 ± 5% | 7 ± 5% | – | – | – | –
4 | O=C(COc1ccc(/C=C2\SC(=O)NC2=O)cc1)NC1CCN(Cc2ccccc2)CC1 [MCC-7] | – | – | – | – | – | – | – | – | k2 for TvG6PD::6PGL protein, in-house library compounds [1]: 0.26 M⁻¹ s⁻¹
5 | COc1c(C)cnc(C[S+]([O-])c2nc3ccccc3[nH]2)c1C (stereo not shown) [H-BZM2, 2-[(4-methoxy-3,5-dimethylpyridin-2-yl)methanesulfinyl]-1H-benzimidazole] | – | – | – | 100 ± 5% | 47 ± 5% | 37 µM | complete activity of the GlG6PD::6PGL enzyme was eradicated | 3.3 M⁻¹ s⁻¹ | IC50 [5]: 24 µM
6 | Cc1c(OCC(F)(F)F)ccnc1C[S+]([O-])c1nc2ccc(N)cc2[nH]1 (stereo not shown) [Compound H2N-BZM6, 2-{[3-methyl-4-(2,2,2-trifluoroethoxy)pyridin-2-yl]methanesulfinyl}-1H-benzimidazol-6-amine] | – | – | – | 100 ± 5% | 12 ± 5% | – | complete activity of the GlG6PD::6PGL enzyme was eradicated | – | –
7 | Cc1c(OCC(F)(F)F)ccnc1C[S+]([O-])c1nc2ccc([N+](=O)[O-])cc2[nH]1 (stereo not shown) [Compound O2N-BZM9, 2-{[3-methyl-4-(2,2,2-trifluoroethoxy)pyridin-2-yl]methanesulfinyl}-6-nitro-1H-benzimidazole] | 160 | 4 µM | 39 | 100 ± 5% | > 70% | 20 µM | complete activity of the GlG6PD::6PGL enzyme was eradicated | 6.1 M⁻¹ s⁻¹ | reduction of T. vaginalis trophozoite viability at 6 µM [2]: 52%; reduction of T. vaginalis trophozoite viability at 100 μM [2]: 100%; maximal intrinsic fluorescence intensity of TvG6PD::6PGL [8]: 102 a.u.; k2 for inactivation of GlTIM enzyme [7]: 2.8 M⁻¹ s⁻¹; change of secondary structure (CD spectra) of GlG6PD::6PGL [9]: did not induce alterations of the secondary structure; reduction of intrinsic fluorescence of GlG6PD::6PGL compared to control [10]: 62%; maximum intrinsic fluorescence intensity of GlG6PD::6PGL [10]: 329 a.u.; IC50 [11]: 17 µM; IC50 [5]: 15 µM; kinact/KI [6]: 1.62 M⁻¹ s⁻¹
8 | O=[N+]([O-])c1ccc2nc([S+]([O-])Cc3ccccn3)[nH]c2c1 (stereo not shown) [Compound O2N-BZM7, 6-nitro-2-[(pyridin-2-yl)methanesulfinyl]-1H-benzimidazole] | 106 | 6 µM | 45 | 100 ± 5% | – | 12 µM | complete activity of the GlG6PD::6PGL enzyme was eradicated | 1.9 M⁻¹ s⁻¹ | reduction of T. vaginalis trophozoite viability at 6 µM [2]: 52%; reduction of T. vaginalis trophozoite viability at 100 μM [2]: 100%; maximal intrinsic fluorescence intensity of TvG6PD::6PGL [8]: 415 a.u.; k2 for inactivation of GlTIM enzyme [7]: 3.2 M⁻¹ s⁻¹; change of secondary structure (CD spectra) of GlG6PD::6PGL [9]: did not induce alterations of the secondary structure; reduction of intrinsic fluorescence of GlG6PD::6PGL compared to control [10]: 62%; maximum intrinsic fluorescence intensity of GlG6PD::6PGL [10]: 329 a.u.; IC50 [11]: 14 µM; kinact/KI [6]: 0.85 M⁻¹ s⁻¹
